In US8952024B2, “Herbicidal pyrimidone derivatives” (E I du Pont de Nemours and Company, priority 2009, dated 2015):

How the values were obtained:
Assay in all cases: Test B pre-/postemergence plant response
Type in all cases: in vivo
[1] = system: large crabgrass (Digitaria sanguinalis)
Summary of the method: (§1)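 Visual injury, 0–100 scale (100 = complete control), rated against controls after 13 to 15 days in greenhouse. Pre-emergence: seeds in loam/sand soil, treated at planting. Post-emergence: 1- to 4-leaf plants (2 to 18 cm) in peat/vermiculite medium. Compounds formulated in non-phytotoxic solvent with surfactant.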

[2] = system: giant foxtail (Setaria faberii)
Summary of the method: as §1

[3] = system: green foxtail (Setaria viridis)
Summary of the method: as §1

[4] = system: downy bromegrass (Bromus tectorum)
Summary of the method: as §1

[5] = system: morningglory (Ipomoea coccinea)
Summary of the method: as §1

[6] = system: woolly cupgrass (Eriochloa villosa)
Summary of the method: as §1

[7] = system: bermudagrass (Cynodon dactylon)
Summary of the method: as §1

[8] = system: goosegrass (Eleusine indica)
Summary of the method: as §1

[9] = system: johnsongrass (Sorghum halepense)
Summary of the method: as §1

corn (Zea mays) = system: corn (Zea mays)
Summary of the method: as §1

[10] = system: ragweed (common ragweed, Ambrosia elatior)
Summary of the method: as §1

[11] = system: yellow nutsedge (Cyperus esculentus)
Summary of the method: as §1

[12] = system: Italian ryegrass (Lolium multiflorum)
Summary of the method: as §1

[13] = 250 g ai/ha, Preemergence, 0 to 100 scale
[14] = Postemergence, 31 g ai/ha, scale 0 to 100 (0 no effect, 100 complete control)
[15] = Postemergence, 62 g ai/ha, scale 0 (no effect) to 100 (complete control), 13 to 15 days
[16] = Postemergence, 125 g ai/ha, visual rating after 13 to 15 days, scale 0 (no effect) to 100 (complete control)
[17] = Postemergence, 250 g ai/ha, scale 0 to 100
[18] = Preemergence, 31 g ai/ha, scale 0 to 100 (0 no effect, 100 complete control)
[19] = Preemergence, 62 g ai/ha, scale 0 to 100 (0 no effect, 100 complete control)
[20] = Preemergence, 125 g ai/ha, 0 to 100 scale
[21] = 62 g ai/ha, postemergence, 0 is no effect, 100 is complete control, 13 to 15 days
[22] = Postemergence, 31 g ai/ha, 0 to 100 scale (0 no effect, 100 complete control)
[23] = Postemergence, 125 g ai/ha, scale 0 to 100 (0 no effect, 100 complete control)
[24] = Postemergence, 250 g ai/ha, scale 0 to 100 (0 no effect, 100 complete control), 13 to 15 days

Cc1cc(C)cc(-n2c(-c3ccccc3)ncc(C(=O)C3=C(O)CCCC3=O)c2=O)c1 [Compound 33]
Plant response rating, Crabgrass, Large [1, 13]: 100
Plant response rating, Crabgrass, Large [1, 14]: 75
Plant response rating, Crabgrass, Large [1, 15]: 85
Plant response rating, Crabgrass, Large [1, 16]: 90
Crabgrass, Large plant response rating [1, 17]: 98
Plant response rating, Crabgrass, Large [1, 18]: 85
Plant response rating, Crabgrass, Large [1, 19]: 98
Crabgrass, Large plant response rating [1, 20]: 100
Plant response rating, Foxtail, Giant [2, 13]: 98
Plant response rating, Foxtail, Giant [2, 14]: 75
Plant response rating, Foxtail, Giant [2, 15]: 80
Plant response rating, Foxtail, Giant [2, 16]: 85
Foxtail, Giant plant response rating [2, 17]: 95
Plant response rating, Foxtail, Giant [2, 18]: 10
Plant response rating, Foxtail, Giant [2, 19]: 45
Foxtail, Giant plant response rating [2, 20]: 95
Plant response rating, Foxtail, Green [3, 13]: 100
Plant response rating, Foxtail, Green [3, 14]: 50
Plant response rating, Foxtail, Green [3, 15]: 85
Plant response rating, Foxtail, Green [3, 16]: 90
Foxtail, Green plant response rating [3, 17]: 90
Plant response rating, Foxtail, Green [3, 18]: 0
Plant response rating, Foxtail, Green [3, 19]: 45
Foxtail, Green plant response rating [3, 20]: 100
Plant response rating, Bromegrass, Downy [4, 13]: 30
Plant response rating, Bromegrass, Downy [4, 14]: 5
Plant response rating, Bromegrass, Downy [4, 15]: 5
Plant response rating, Bromegrass, Downy [4, 16]: 10
Bromegrass, Downy plant response rating [4, 17]: 20
Plant response rating, Bromegrass, Downy [4, 18]: 0
Plant response rating, Bromegrass, Downy [4, 19]: 0
Bromegrass, Downy plant response rating [4, 20]: 5
Plant response rating, Morningglory [5, 13]: 90
Plant response rating, Morningglory [5, 15]: 60
Plant response rating, Morningglory [5, 16]: 80
Plant response rating, Morningglory [5, 18]: 0
Plant response rating, Morningglory [5, 19]: 15
Morningglory plant response rating [5, 20]: 70
Plant response rating, Cupgrass, Woolly [6, 13]: 85
Plant response rating, Cupgrass, Woolly [6, 14]: 65
Plant response rating, Cupgrass, Woolly [6, 15]: 65
Plant response rating, Cupgrass, Woolly [6, 16]: 70
Cupgrass, Woolly plant response rating [6, 17]: 90
Plant response rating, Cupgrass, Woolly [6, 18]: 10
Plant response rating, Cupgrass, Woolly [6, 19]: 50
Cupgrass, Woolly plant response rating [6, 20]: 60
Plant response rating, Bermudagrass [7, 13]: 100
Plant response rating, Bermudagrass [7, 14]: 75
Plant response rating, Bermudagrass [7, 15]: 95
Plant response rating, Bermudagrass [7, 16]: 98
Bermudagrass plant response rating [7, 17]: 98
Plant response rating, Bermudagrass [7, 18]: 98
Plant response rating, Bermudagrass [7, 19]: 100
Bermudagrass plant response rating [7, 20]: 100
Plant response rating, Goosegrass [8, 13]: 98
Plant response rating, Goosegrass [8, 15]: 75
Plant response rating, Goosegrass [8, 16]: 85
Goosegrass plant response rating [8, 17]: 85
Plant response rating, Goosegrass [8, 18]: 80
Goosegrass plant response rating [8, 20]: 90
Plant response rating, Johnsongrass [9, 13]: 20
Plant response rating, Johnsongrass [9, 15]: 35
Plant response rating, Johnsongrass [9, 16]: 35
Johnsongrass plant response rating [9, 17]: 40
Plant response rating, Johnsongrass [9, 18]: 0
Plant response rating, Johnsongrass [9, 19]: 0
Johnsongrass plant response rating [9, 20]: 0
Plant response rating, Corn (corn (Zea mays); [13]): 0
Plant response rating, Corn (corn (Zea mays); [14]): 0
Plant response rating, Corn (corn (Zea mays); [15]): 10
Plant response rating, Corn (corn (Zea mays); [16]): 10
Corn plant response rating (corn (Zea mays); [17]): 15
Plant response rating, Corn (corn (Zea mays); [18]): 0
Plant response rating, Corn (corn (Zea mays); [19]): 0
Corn plant response rating (corn (Zea mays); [20]): 0
Plant response rating, Ragweed [10, 13]: 100
Plant response rating, Ragweed [10, 15]: 95
Plant response rating, Ragweed [10, 16]: 98
Plant response rating, Ragweed [10, 18]: 80
Plant response rating, Ragweed [10, 19]: 85
Ragweed plant response rating [10, 20]: 100
Plant response rating, Nutsedge, Yellow [11, 13]: 90
Plant response rating, Nutsedge, Yellow [11, 15]: 50
Plant response rating, Nutsedge, Yellow [11, 16]: 75
Plant response rating, Nutsedge, Yellow [11, 18]: 0
Plant response rating, Nutsedge, Yellow [11, 19]: 45
Nutsedge, Yellow plant response rating [11, 20]: 70
Plant response rating, Ryegrass, Italian [12, 13]: 5
Plant response rating, Ryegrass, Italian [12, 15]: 10
Plant response rating, Ryegrass, Italian [12, 16]: 40
Plant response rating, Ryegrass, Italian [12, 18]: 0
Plant response rating, Ryegrass, Italian [12, 19]: 0
Ryegrass, Italian plant response rating [12, 20]: 5

COCCn1c(-c2cccc(Cl)c2)ncc(C(=O)C2=C(O)CCCC2=O)c1=O [Compound 147]
Crabgrass, Large plant response rating (0 to 100 scale) [1, 21]: 75
Plant response rating, Crabgrass, Large [1, 22]: 60
Plant response rating, Crabgrass, Large [1, 23]: 85
Plant response rating, Crabgrass, Large [1, 24]: 90
Foxtail, Giant plant response rating (0 to 100 scale) [2, 21]: 80
Plant response rating, Foxtail, Giant [2, 22]: 65
Plant response rating, Foxtail, Giant [2, 23]: 85
Plant response rating, Foxtail, Giant [2, 24]: 90
Foxtail, Green plant response rating (0 to 100 scale) [3, 21]: 65
Plant response rating, Foxtail, Green [3, 22]: 40
Plant response rating, Foxtail, Green [3, 23]: 80
Plant response rating, Foxtail, Green [3, 24]: 90
Bromegrass, Downy plant response rating (0 to 100 scale) [4, 21]: 5
Plant response rating, Bromegrass, Downy [4, 22]: 0
Plant response rating, Bromegrass, Downy [4, 23]: 5
Plant response rating, Bromegrass, Downy [4, 24]: 10
Morningglory plant response rating (0 to 100 scale) [5, 21]: 50
Plant response rating, Morningglory [5, 22]: 50
Plant response rating, Morningglory [5, 23]: 65
Plant response rating, Morningglory [5, 24]: 100
Cupgrass, Woolly plant response rating (0 to 100 scale) [6, 21]: 70
Plant response rating, Cupgrass, Woolly [6, 22]: 65
Plant response rating, Cupgrass, Woolly [6, 23]: 80
Plant response rating, Cupgrass, Woolly [6, 24]: 80
Bermudagrass plant response rating (0 to 100 scale) [7, 21]: 90
Plant response rating, Bermudagrass [7, 22]: 75
Plant response rating, Bermudagrass [7, 23]: 95
Plant response rating, Bermudagrass [7, 24]: 98
Goosegrass plant response rating (0 to 100 scale) [8, 21]: 70
Plant response rating, Goosegrass [8, 22]: 35
Plant response rating, Goosegrass [8, 23]: 80
Plant response rating, Goosegrass [8, 24]: 95
Johnsongrass plant response rating (0 to 100 scale) [9, 21]: 40
Plant response rating, Johnsongrass [9, 22]: 15
Plant response rating, Johnsongrass [9, 23]: 60
Plant response rating, Johnsongrass [9, 24]: 60
Corn plant response rating (0 to 100 scale) (corn (Zea mays); [21]): 15
Plant response rating, Corn (corn (Zea mays); [22]): 0
Plant response rating, Corn (corn (Zea mays); [23]): 25
Plant response rating, Corn (corn (Zea mays); [24]): 40
Ragweed plant response rating (0 to 100 scale) [10, 21]: 75
Plant response rating, Ragweed [10, 22]: 20
Plant response rating, Ragweed [10, 23]: 90
Plant response rating, Ragweed [10, 24]: 98
Nutsedge, Yellow plant response rating (0 to 100 scale) [11, 21]: 60
Plant response rating, Nutsedge, Yellow [11, 22]: 50
Plant response rating, Nutsedge, Yellow [11, 23]: 70
Plant response rating, Nutsedge, Yellow [11, 24]: 75
Ryegrass, Italian plant response rating (0 to 100 scale) [12, 21]: 5
Plant response rating, Ryegrass, Italian [12, 22]: 5
Plant response rating, Ryegrass, Italian [12, 23]: 30
Plant response rating, Ryegrass, Italian [12, 24]: 40
